Data reported in ChEMBL document CHEMBL6182869, “Tetracationic tetraaryltetranaphtho[2,3]porphyrins for photodynamic inactivation against Staphylococcus aureus biofilm” (Eur J Med Chem, 2025).
Calls of active or inactive are those of the source. The calls are words filed in the database; no cut-off is given here.

Key:
[1] = Photophysical property of the compound assessed as fluorescence quantum yield by UV-vis spectrophotometric analysis; type: physicochemical
[2] = Photophysical property of the compound assessed as singlet oxygen quantum yield by UV-vis spectrophotometric analysis; type: physicochemical
[3] = Induction of singlet oxygen quantum yield under 418 nm light irradiation by DPBF based assay; type: functional
Staphylococcus aureus [4] = test: Antibacterial activity against Staphylococcus aureus assessed as bacterial growth inhibition preincubated with compound for 15 mins followed by light irradiated with 730 nm, 40 J/cm2 and measured after 24 hrs by broth microdilution method; type: functional; conditions: light or radiation study, 24.25 h, time 1455 min
Staphylococcus aureus [5] = test: Antibacterial activity against Staphylococcus aureus assessed as bacterial growth inhibition measured after 24 hrs by broth microdilution method; type: functional
Escherichia coli [6] = test: Antibacterial activity against Escherichia coli assessed as bacterial growth inhibition measured after 24 hrs by broth microdilution method; type: functional
Escherichia coli [7] = test: Antibacterial activity against Escherichia coli assessed as bacterial growth inhibition preincubated with compound for 15 mins followed by light irradiated with 730 nm, 40 J/cm2 and measured after 24 hrs by broth microdilution method; type: functional; conditions: light or radiation study, 24.25 h, time 1455 min
Candida albicans [8] = test: Antifungal activity against Candida albicans assessed as fungal growth inhibition measured after 24 hrs by broth microdilution method; type: functional
Candida albicans [9] = test: Antifungal activity against Candida albicans assessed as fungal growth inhibition preincubated with compound for 15 mins followed by light irradiated with 730 nm, 40 J/cm2 and measured after 24 hrs by broth microdilution method; type: functional; conditions: light or radiation study, 24.25 h, time 1455 min
Staphylococcus aureus [10] = test: Antibacterial activity against Staphylococcus aureus preincubated with compound for 15 mins followed by light irradiation with 730 nm, 40 J/cm2 by cell counting analysis; type: functional, organism-based; conditions: dose 0.5-8 µM
Staphylococcus aureus [11] = test: Antibacterial activity against Staphylococcus aureus assessed as reduction in viable bacteria at 0.5 uM preincubated with compound for 15 mins followed by light irradiation with 730 nm, 40 J/cm2 by cell counting analysis relative to control; type: functional; conditions: 0.25 h
Staphylococcus aureus [12] = test: Antibacterial activity against Staphylococcus aureus assessed as log reduction in bacterial viability at 8 uM preincubated with compound for 15 mins followed by light irradiation with 730 nm, 40 J/cm2 by cell counting analysis relative to control; type: functional; conditions: 0.25 h
Staphylococcus aureus [13] = test: Antibacterial activity against Staphylococcus aureus assessed as eradication rate at 8 uM preincubated with compound for 15 mins followed by light irradiation with 730 nm, 40 J/cm2 relative to control; type: functional; conditions: 0.25 h
Staphylococcus aureus [14] = test: Bactericidal activity against Staphylococcus aureus at 0.5 to 8 uM; type: functional, organism-based; conditions: dose 0.5-8 µM
Staphylococcus aureus [15] = test: Antibiofilm activity against Staphylococcus aureus assessed as disruption of mature biofilm structure at 16 uM preincubated for 15 mins followed by light irradiation with 730 nm, 40 J/cm2 by crystal violet staining based analysis; type: functional, organism-based
Staphylococcus aureus [16] = test: Antibiofilm activity against Staphylococcus aureus assessed as disruption of mature biofilm rate at 16 uM preincubated for 15 mins followed by light irradiation with 730 nm, 40 J/cm2 by crystal violet staining based analysis relative to control; type: functional; conditions: 0.25 h
Staphylococcus aureus [17] = test: Antibiofilm activity against Staphylococcus aureus assessed as reduction in green fluorescence intensity at 16 uM preincubated for 15 mins followed by light irradiation with 730 nm, 40 J/cm2 by SYTO 9/PI staining based CLSM analysis; type: functional, organism-based
Staphylococcus aureus [18] = test: Antibiofilm activity against Staphylococcus aureus assessed as increase in red fluorescence intensity at 16 uM preincubated for 15 mins followed by light irradiation with 730 nm, 40 J/cm2 by SYTO 9/PI staining based CLSM analysis; type: functional, organism-based
[19] = Dark cytotoxicity against human HaCaT cells assessed as cell viability at 16 uM preincubated for 15 mins by MTT assay; type: toxicity, cell-based; conditions: read-out: Activity
HaCaT [20] = test: Phototoxicity in human HaCaT cells assessed as cell viability at 16 uM preincubated for 15 mins by MTT assay; type: functional, cell-based
HaCaT [21] = test: Phototoxicity in human HaCaT cells assessed as cell viability at 16 uM preincubated for 15 mins followed by light irradiation with 730 nm, 40 J/cm2 by MTT assay; type: functional, cell-based

| Structure (SMILES) | Activity [1] | Activity [2] | Activity [3] | MIC (Staphylococcus aureus [4]) | MIC (Staphylococcus aureus [5]) | MIC (Escherichia coli [6]) | MIC (Escherichia coli [7]) | MIC (Candida albicans [8]) | MIC (Candida albicans [9]) | other results |
| --- | --- | --- | --- | --- | --- | --- | --- | --- | --- | --- |
| C[N+](C)(C)CCCCCOc1ccc(-c2c3nc(c(-c4ccc(OCCCCC[N+](C)(C)C)cc4)c4[nH]c(c(-c5ccc(OCCCCC[N+](C)(C)C)cc5)c5nc(c(-c6ccc(OCCCCC[N+](C)(C)C)cc6)c6[nH]c2c2cc7ccccc7cc62)-c2cc6ccccc6cc2-5)c2cc5ccccc5cc42)-c2cc4ccccc4cc2-3)cc1.[Br-].[Br-].[Br-].[Br-] | 0.07 | 0.47 | Active | 16 µM | 64 µM | > 64 µM | > 64 µM | 64 µM | 64 µM | – |
| [Br-].[Br-].[Br-].[Br-].c1cc[n+](CCCCCOc2ccc(-c3c4nc(c(-c5ccc(OCCCCC[n+]6ccccc6)cc5)c5[nH]c(c(-c6ccc(OCCCCC[n+]7ccccc7)cc6)c6nc(c(-c7ccc(OCCCCC[n+]8ccccc8)cc7)c7[nH]c3c3cc8ccccc8cc73)-c3cc7ccccc7cc3-6)c3cc6ccccc6cc53)-c3cc5ccccc5cc3-4)cc2)cc1 | 0.08 | 0.5 | Active | 32 µM | 64 µM | > 64 µM | > 64 µM | 64 µM | 32 µM | – |
| CC[N+](C)(CC)CCCCCOc1ccc(-c2c3nc(c(-c4ccc(OCCCCC[N+](C)(CC)CC)cc4)c4[nH]c(c(-c5ccc(OCCCCC[N+](C)(CC)CC)cc5)c5nc(c(-c6ccc(OCCCCC[N+](C)(CC)CC)cc6)c6[nH]c2c2cc7ccccc7cc62)-c2cc6ccccc6cc2-5)c2cc5ccccc5cc42)-c2cc4ccccc4cc2-3)cc1.[Br-].[Br-].[Br-].[Br-] | 0.07 | 0.67 | Active | 16 µM | 32 µM | > 64 µM | > 64 µM | 64 µM | 64 µM | – |
| C[N+](C)(C)CCCOc1ccc(-c2c3nc(c(-c4ccc(OCCC[N+](C)(C)C)cc4)c4[nH]c(c(-c5ccc(OCCC[N+](C)(C)C)cc5)c5nc(c(-c6ccc(OCCC[N+](C)(C)C)cc6)c6[nH]c2c2cc7ccccc7cc62)-c2cc6ccccc6cc2-5)c2cc5ccccc5cc42)-c2cc4ccccc4cc2-3)cc1.[Br-].[Br-].[Br-].[Br-] | 0.07 | 0.37 | Active | 8 µM | 32 µM | > 64 µM | > 64 µM | 64 µM | 64 µM | Activity (Staphylococcus aureus [10]): Dose-dependent-effect; Activity (Staphylococcus aureus [11]): >75%; log(activity) (Staphylococcus aureus [12]): 3; Activity (Staphylococcus aureus [13]): >99.9%; Activity (Staphylococcus aureus [14]): Active; Activity (Staphylococcus aureus [15]): Active; Activity (Staphylococcus aureus [16]): 72.6%; Activity (Staphylococcus aureus [17]): Active; Activity (Staphylococcus aureus [18]): Active; viability at 0.25 h, 16 µM [19]: > 80%; Activity (HaCaT [20]): inactive; Activity (HaCaT [21]): inactive |
| C[N+](C)(C)CCCCCCOc1ccc(-c2c3nc(c(-c4ccc(OCCCCCC[N+](C)(C)C)cc4)c4[nH]c(c(-c5ccc(OCCCCCC[N+](C)(C)C)cc5)c5nc(c(-c6ccc(OCCCCCC[N+](C)(C)C)cc6)c6[nH]c2c2cc7ccccc7cc62)-c2cc6ccccc6cc2-5)c2cc5ccccc5cc42)-c2cc4ccccc4cc2-3)cc1.[Br-].[Br-].[Br-].[Br-] | 0.07 | 0.48 | Active | 16 µM | 64 µM | > 64 µM | > 64 µM | 64 µM | 64 µM | – |
| CC[N+](C)(CC)CCCCOc1ccc(-c2c3nc(c(-c4ccc(OCCCC[N+](C)(CC)CC)cc4)c4[nH]c(c(-c5ccc(OCCCC[N+](C)(CC)CC)cc5)c5nc(c(-c6ccc(OCCCC[N+](C)(CC)CC)cc6)c6[nH]c2c2cc7ccccc7cc62)-c2cc6ccccc6cc2-5)c2cc5ccccc5cc42)-c2cc4ccccc4cc2-3)cc1.[Br-].[Br-].[Br-].[Br-] | 0.07 | 0.56 | Active | 8 µM | 16 µM | > 64 µM | > 64 µM | 64 µM | 64 µM | – |
| CC[N+](C)(CC)CCCCCCOc1ccc(-c2c3nc(c(-c4ccc(OCCCCCC[N+](C)(CC)CC)cc4)c4[nH]c(c(-c5ccc(OCCCCCC[N+](C)(CC)CC)cc5)c5nc(c(-c6ccc(OCCCCCC[N+](C)(CC)CC)cc6)c6[nH]c2c2cc7ccccc7cc62)-c2cc6ccccc6cc2-5)c2cc5ccccc5cc42)-c2cc4ccccc4cc2-3)cc1.[Br-].[Br-].[Br-].[Br-] | 0.07 | 0.68 | Active | 64 µM | 64 µM | > 64 µM | > 64 µM | 64 µM | 64 µM | – |
| [Br-].[Br-].[Br-].[Br-].c1cc[n+](CCCCOc2ccc(-c3c4nc(c(-c5ccc(OCCCC[n+]6ccccc6)cc5)c5[nH]c(c(-c6ccc(OCCCC[n+]7ccccc7)cc6)c6nc(c(-c7ccc(OCCCC[n+]8ccccc8)cc7)c7[nH]c3c3cc8ccccc8cc73)-c3cc7ccccc7cc3-6)c3cc6ccccc6cc53)-c3cc5ccccc5cc3-4)cc2)cc1 | 0.08 | 0.45 | Active | 32 µM | 64 µM | > 64 µM | > 64 µM | 64 µM | 32 µM | – |
| C[N+](C)(C)CCCCOc1ccc(-c2c3nc(c(-c4ccc(OCCCC[N+](C)(C)C)cc4)c4[nH]c(c(-c5ccc(OCCCC[N+](C)(C)C)cc5)c5nc(c(-c6ccc(OCCCC[N+](C)(C)C)cc6)c6[nH]c2c2cc7ccccc7cc62)-c2cc6ccccc6cc2-5)c2cc5ccccc5cc42)-c2cc4ccccc4cc2-3)cc1.[Br-].[Br-].[Br-].[Br-] | 0.08 | 0.41 | Active | 16 µM | 32 µM | > 64 µM | > 64 µM | 64 µM | 64 µM | – |
| [Br-].[Br-].[Br-].[Br-].c1cc[n+](CCCCCCOc2ccc(-c3c4nc(c(-c5ccc(OCCCCCC[n+]6ccccc6)cc5)c5[nH]c(c(-c6ccc(OCCCCCC[n+]7ccccc7)cc6)c6nc(c(-c7ccc(OCCCCCC[n+]8ccccc8)cc7)c7[nH]c3c3cc8ccccc8cc73)-c3cc7ccccc7cc3-6)c3cc6ccccc6cc53)-c3cc5ccccc5cc3-4)cc2)cc1 | 0.07 | 0.52 | Active | 64 µM | 64 µM | > 64 µM | > 64 µM | 64 µM | 64 µM | – |
